Where a name gives a salt, the structure may show the parent alone.
Legend:
[1] = system: Murine macrophages J774.2; design: method as in Matadamas-Martínez et al., 2019 [28]; details: J774.2 murine macrophages; previous study under the same conditions; ref Matadamas-Martínez et al., 2019 [28]; cited from earlier work
[2] = system: amastigote of L. mexicana; test: Biological activity against intracellular amastigotes in J774.2 macrophages, resazurin; assay type: cell-based, Leishmania mexicana; details: intracellular L. mexicana amastigotes in J774.2 macrophages, 48 h
Protocol: Biological activity of the benzimidazole derivatives was also evaluated against the amastigote of L. mexicana. For this, 5 × 10^4 murine macrophages J774.2 (ATCC® TIB-67) per well were grown in a plate of 96 wells with RPMI medium at […], 5% CO2 during 24 h. The cells were infected with promastigotes in log phase in a 10:1 proportion (parasite: macrophage) and they were incubated at 37 °C, 5% CO2 during 24–48 h. A wash with RPMI medium to remove the not-infected promastigotes was made. Compounds were added in a serial dilution from 100 µg to 0.8 µg/mL in triplicate and were incubated at 37 °C, 5% CO2 for 48 h. Glucantime, Amphotericin B and Miltefosine were used as reference drugs. Then, the cells were lysed with a non-complemented Schneider’s medium lysis solution with SDS 0.01%, after incubating for 20 min the lysis solution was removed. Afterwards, Schneider medium was added incubating at 26 °C during four days at room temperature to differentiate intracellular amastigotes from free amastigotes. Thereafter, 20 µL of resazurin 2.5 mM was added to each well and incubated during 3 h. Fluorescence intensity and IC50 were measured as described for promastigotes. The assays were made by triplicate in 3 independent experiments.

[3] = system: Promastigotes of L. mexicana (MNYC/BZ/62/M379); test: Biological activity against promastigotes, resazurin; assay type: cell-based, Leishmania mexicana; details: 48 h
Protocol: Promastigotes of L. mexicana (MNYC/BZ/62/M379 reference strain) were grown in Schneider’s medium supplemented with fetal bovine serum 10% (v/v), ampicillin (100 U/mL)/streptomycin (100 µg/mL). Parasites were collected at log phase to assess the compounds and 5 × 10^5 promastigotes were seeded in a 96-wells plate. Compounds were previously dissolved in dimethyl sulfoxide (DMSO) up to a concentration of 1 mg/mL. Thereafter, serial dilutions were made with culture medium from 100 µg/mL to 0.8 µg/mL and then they were added to the wells by triplicates. Parasites non treated and treated with Glucantime, Amphotericin B and Miltefosine were included as […]. Parasites were incubated at 26 °C during 48 h and resazurin 2.5 mM was added at the end into each well. Afterwards, fluorescence intensity was measured with excitation/emission 535/590 nm in a spectrofluorometer (Infinite 200, Tecan Group Ltd., Mannedorf, Switzerland). Finally, half maximal inhibitory concentration (IC50) was determined through a Probit analysis. The assays were made by triplicate in 3 independent experiments.

[4] = system: L. amazonensis promastigotes; design: method as in PMID 33198198; details: cited from earlier work
human arginase 1 (HsARG) = molecular target: T1, human arginase 1 (HsARG) (Homo sapiens, UniProt P05089); test: Inhibition of recombinant human arginase 1, colorimetric urea assay; assay type: biochemical; details: for Selectivity LmARG versus HsARG: comparison of inhibition of LmARG and HsARG; for Inhibition of recombinant HsARG: highest concentration possible to be tested, 1 mM
T1 construct: made in house; host or cells: E. coli BL21(DE3)pLysS
T1 sequence (P05089 1-322): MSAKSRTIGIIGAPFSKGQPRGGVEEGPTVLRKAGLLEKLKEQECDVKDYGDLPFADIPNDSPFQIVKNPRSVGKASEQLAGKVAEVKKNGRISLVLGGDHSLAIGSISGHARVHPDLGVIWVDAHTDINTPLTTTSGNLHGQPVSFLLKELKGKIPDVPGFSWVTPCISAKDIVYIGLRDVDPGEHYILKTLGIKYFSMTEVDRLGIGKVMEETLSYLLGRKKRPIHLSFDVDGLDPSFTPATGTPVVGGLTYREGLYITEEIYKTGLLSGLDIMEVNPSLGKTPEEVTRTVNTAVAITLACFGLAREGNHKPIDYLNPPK
Protocol: (§1) The activity of the recombinant arginases was measured in a colorimetric assay with some modifications. Briefly, the enzyme (2 µg) was previously activated with 1 mM MnCl2, 100 mM Tris-HCl, pH 8 during 15 min at 37 °C. Thereafter, 50 mM L-arginine was added, and the reaction was stopped after 10 min using 30 µL of an acid mixture (H2SO4, H3PO4 and H2O [1:3:7]), and 20 µL of 245 mM of α-isonitrosopropiophenone (dissolved in ethanol). Samples were heated in a thermocycler at 95 °C for 1 h. The urea in the samples was measured at 550 nm in a Synergy H1 Hybrid Multi-Mode Microplate Reader (BioTek).
(§2) The fifty molecules with the highest docking score were selected for inhibition studies that were made under the conditions mentioned above, adding the respective compound (dissolved in DMSO) at a concentration of 200 µM, keeping a final 10% DMSO concentration. The concentration that inhibits 50% of the enzyme activity (I50) was determined through curves at different compound concentrations. The I50 was obtained fitting the curves to the equation reported by Téllez-Valencia, et al., 2002 [25].

[5] = molecular target: recombinant arginase from Leishmania mexicana (LmARG) (Leishmania mexicana, UniProt Q6TUJ5); test: Inhibition of recombinant LmARG, colorimetric urea assay; assay type: biochemical; details: for Inhibition behavior of LmARG: I50 curves; for inhibition at 200 µM: read-out: % Inhibition LmARG [200 μM]; for IC50: recombinant LmARG, read-out: I50 (concentration that inhibits 50% enzyme activity), LmARG
Protocol: as §1, §2

[6] = Cytotoxicity assay, resazurin; assay type: cell-based; details: mouse, J774.2 murine macrophages, maximum concentration evaluated
Protocol: Murine macrophages J774.2 (ATCC® TIB-67) (5 × 10^4 cells/well) were grown in plates of 96 wells for 24 h at 37 °C in 5% CO2. Thereafter, compounds were added in serial diluted concentrations (100 to 0.8 µg/mL) and they were incubated during 24 h. The cellular vitality was evaluated using resazurin, adding 20 µL to each well at 2.5 mM incubating 4 h. Finally, the cytotoxic concentration (CC50) was determined through a Probit analysis. The assays were made by triplicate in 3 independent experiments. CC50 values of Amphotericin B, Miltefosine and Glucantime were taken from a previous study performed under the same conditions by our research group.

promastigotes = details: cited from earlier work

`CSc1nc2cc(N3CCNCC3)c(Cl)cc2[nH]1` (as salt: HCl) [Compound 6, 6-Chloro-2-(methylthio)-5-(piperazin-1-yl)-1H-benzimidazole] gave a melting point of 235 to 237 °C.

`COC(=O)Nc1nc2ccc(Cl)cc2n1C` (hydrate or solvate) [Compound 8, Methyl (6-chloro-1-methyl-1H-benzimidazol-2-yl)carbamate] gave a melting point of 191.3 to 192.4 °C.

In the case of `C[C@@H]1[C@H](O)[C@@H](C)/C=C/C=C/C=C/C=C/C=C/C=C/C=C/[C@H](O[C@@H]2O[C@H](C)[C@@H](O)[C@H](N)[C@@H]2O)C[C@@H]2O[C@](O)(C[C@@H](O)C[C@@H](O)[C@H](O)CC[C@@H](O)C[C@@H](O)CC(=O)O[C@H]1C)C[C@H](O)[C@H]2C(=O)O` [Amphotericin B], the CC50 [1] is listed as 7.4 µM, the IC50 ([2]; Leishmania mexicana) is listed as 1.3 µM and the IC50 ([3]; Leishmania mexicana) is listed as 0.89 µM.

For `O=C(/C=C/c1ccc(O)c(O)c1)Nc1ccccc1` [CAPA, caffeic acid phenylamide], the IC50 [4] is given as 82.6 µM.

In the case of `COC(=O)Nc1nc2cc(Cl)ccc2n1C` [Compound 1, Methyl (5-chloro-1-methyl-1H-benzimidazol-2-yl)carbamate], the “Selectivity LmARG versus HsARG” value (human arginase 1 (HsARG)) is reported as “selective to the enzyme from parasite”, the “Inhibition of recombinant HsARG” value (human arginase 1 (HsARG)) is reported as “none of the compounds inhibit completely the enzyme” and the “Inhibition behavior of LmARG” value [5] is reported as “cooperative behavior”. It also gave an inhibition at 200 µM [5] of 100%, an IC50 [5] of 52 µM and an IC50 ([2]; Leishmania mexicana) of 32 µM. For the same compound, the IC50 ([3]; Leishmania mexicana) was 64 µM and the CC50 at 24 h [6] was greater than 417 µM.

In the case of `CSc1nc2cc(C(N)=O)c(Cl)cc2[nH]1` [Compound 2, 6-Chloro-2-(methylthio)-1H-benzimidazole-5-carboxamide], the “Selectivity LmARG versus HsARG” value (human arginase 1 (HsARG)) is reported as “selective to the enzyme from parasite”, the “Inhibition of recombinant HsARG” value (human arginase 1 (HsARG)) is reported as “none of the compounds inhibit completely the enzyme” and the “Inhibition behavior of LmARG” value [5] is reported as “cooperative behavior”. The inhibition at 200 µM [5] was 100%, the IC50 [5] was 82 µM and the IC50 ([2]; Leishmania mexicana) was 101 µM. The IC50 ([3]; Leishmania mexicana) was 132 µM and the CC50 at 24 h ([6]; J774.2 macrophages) was greater than 414 µM.

`COC(=O)c1cc2c(cc1Cl)nc(SCC=NNC(N)=O)n2C` [Compound 3, Methyl 2-((2-(2-carbamoylhydrazineylidene)ethyl)thio)-5-chloro-1-methyl-1H-benzimidazole-6-carboxylate] gave a melting point of 196.7 to 197.1 °C and an inhibition at 200 µM [5] of 60%.

`CC(=O)c1nc2cc(Cl)ccc2n1C` [Compound 4] showed an inhibition at 200 µM [5] of 56%.

`CNC(=O)c1nc2ccc(Cl)cc2n1C` [Compound 5] gave an inhibition at 200 µM [5] of 56%.

`CSc1nc2cc(N3CCNCC3)c(Cl)cc2[nH]1` [Compound 6, 6-Chloro-2-(methylthio)-5-(piperazin-1-yl)-1H-benzimidazole] gave an inhibition at 200 µM [5] of 46%.

Compound `COC(=O)c1cc2c(cc1Cl)nc(SCCNC(=N)N)n2C` [Compound 7, Methyl 5-chloro-2-((2-guanidinoethyl)thio)-1-methyl-1H-benzimidazole-6-carboxylate] has a melting point of 172.9 to 173.4 °C and an inhibition at 200 µM [5] of 40%.

`COC(=O)Nc1nc2ccc(Cl)cc2n1C` [Compound 8, Methyl (6-chloro-1-methyl-1H-benzimidazol-2-yl)carbamate] gave an inhibition at 200 µM [5] of 40%.

In the case of `CCCSc1ccc2c(c1)nc(NC(=O)OC)n2C` [Compound 9, Methyl (1-methyl-5-(propylthio)-1H-benzimidazol-2-yl)carbamate], the melting point is reported as 120.5 to 122.1 °C and the inhibition at 200 µM [5] is reported as 36%.

For `CC(=O)c1nc2ccc(Cl)cc2n1C` [Compound 10], the inhibition at 200 µM [5] was 33%.

`CNc1ccc(Cl)cc1N` [Compound 11] showed an inhibition at 200 µM [5] of 33%.

Compound `CNc1cc(Cl)ccc1N` [Compound 12] has an inhibition at 200 µM [5] of 30%.

Work on `CCCSc1ccc(NC)c(N)c1` [Compound 13] yielded an inhibition at 200 µM [5] of 27%.

Work on `COC(=O)c1cc2nc(S)[nH]c2cc1Cl` [Compound 15] yielded an inhibition at 200 µM [5] of 25%.

`COC(=O)c1cc2c(cc1Cl)nc(S)n2C` [Compound 16] showed an inhibition at 200 µM [5] of 25%.

In the case of `CCCCCCCCCCCCCCCCOP(=O)([O-])OCC[N+](C)(C)C` [Miltefosine], the CC50 [1] is listed as 141 µM, the IC50 ([2]; Leishmania mexicana) is listed as 8.6 µM and the IC50 ([3]; Leishmania mexicana) is listed as 8.1 µM.

For `NC(=NCCC[C@H](N)C(=O)O)NO` [NOHA], the EC50 in promastigotes (promastigotes) is listed as “millimolar order”.

For `N=C(NO)NCC[C@H](N)C(=O)O` [nor-NOHA], the EC50 in promastigotes (promastigotes) is listed as “millimolar order”.

For meglumine antimoniate [Glucantime], the CC50 [1] is listed as greater than 273 µM, the IC50 [2] is listed as 35 µM and the IC50 [3] is listed as 101 µM.
